# Where two headings read alike, the source gives them in different places.
# What was measured:
# anaesthetized dog [1] = assay: Activity on the peripheral circulation, anaesthetized dog; assay type: in vivo; settings: for change in vivo at 5 mg/kg / change in vivo at 2.5 mg/kg: Canis lupus familiaris, iv
# Procedure: The activity on the peripheral circulation was studied on an anaesthetized dog (sodium pentobarbital 30 mg/kg/i.v.). The femoral artery flow was measured by means of an electromagnetic or ultrasonic perivascular Doppler effect probe.
# anaesthetized dog [2] = assay: Activity on the cerebral circulation, anaesthetized dog; assay type: in vivo; settings: for change in vivo at 2.5 mg/kg / change in vivo at 5 mg/kg: Canis lupus familiaris, iv
# Procedure: The activity on the cerebral circulation was tested on an anaesthetized dog (sodium pentobarbital 30 mg/kg/i.v.). The vertebral artery flow was measured by means of an electromagnetic perivascular or ultrasonic Doppler effect probe. The intracerebral vascular resistance was estimated by the back pressure of the internal carotid artery. […] The increase in the extraction of cerebral oxygen was estimated by the following equation:(A-V)/A in which: A represents the volume of oxygen in the arterial blood (% volume) measured by hemoreflectometry (KIPP and ZONEN's apparatus) and quantity determination of the haemoglobin (DRABKIN's method). V represents the volume of oxygen in the cerebral venous blood (internal maxillary vein). […] It should be noted that the compounds tested were injected intravenously (rapid injection).
# in vivo = settings: iv
# Text: *LD50 or percentage of mortality which is given between brackets
# anaesthetized dog [3] = assay: Antiangorous activity on anaesthetized dog: consumption of oxygen in the left ventricule and cardiac effort (KATZ's index); assay type: in vivo; settings: for inhibition in vivo at 9.1 mg/kg / inhibition in vivo at 2.3 mg/kg / inhibition in vivo at 2.5 mg/kg: Canis lupus familiaris, iv
# Outline: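 Dogs anaesthetized with sodium pentobarbital 30 mg/kg i.v.; compounds given by slow i.v. perfusion. Left ventricular O2 consumption = coronary venous flow (Morawitz cannula in coronary sinus) × arteriovenous O2 difference; cardiac effort (Katz index) = mean arterial pressure × heart rate from D2 ECG.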
# [4] = dog, 5 mg/kg i.v. slow perfusion, read-out: Average arterial pressure
# [5] = dog, 5 mg/kg i.v. slow perfusion, read-out: Femoral artery flow
# [6] = dog, 5 mg/kg i.v. slow perfusion
# [7] = dog, 2,5 mg/kg i.v. slow perfusion
# [8] = dog, 2,5 mg/kg i.v. rapid injection
# [9] = dog, 5 mg/kg i.v. rapid injection, read-out: Internal carotid artery back pressure
# [10] = dog, 5 mg/kg i.v. rapid injection, read-out: Systemic average arterial pressure
# [11] = dog, 5 mg/kg i.v. rapid injection, read-out: Vertebral artery flow
# [12] = dog, 5 mg/kg i.v. rapid injection
SMILES,change in vivo at 5 mg/kg (anaesthetized dog [1]; [4]) [%],change in vivo at 5 mg/kg (anaesthetized dog [1]; [5]) [%],Average arterial pressure: in time (anaesthetized dog [1]; [6]) [min],Femoral artery flow: in time (anaesthetized dog [1]; [6]) [min],change in vivo at 5 mg/kg (anaesthetized dog [2]; [9]) [%],change in vivo at 5 mg/kg (anaesthetized dog [2]; [10]) [%],change in vivo at 5 mg/kg (anaesthetized dog [2]; [11]) [%],Internal carotid artery back pressure: in time (anaesthetized dog [2]; [12]) [min],Systemic average arterial pressure: in time (anaesthetized dog [2]; [12]) [min],Vertebral artery flow: in time (anaesthetized dog [2]; [12]) [min],other results
C=CCOc1ccccc1OCC(O)CN1CCN(C(=O)/C=C/c2cc(OC)c(OC)c(OC)c2)CC1 (centres unmarked) [760 503],-6,87,15,15,–,–,–,–,–,–,–
"CCN(CC)CCOC(=O)C(Cc1cccc2ccccc12)CC1CCCO1 (centres unmarked) [Naphtidrofuryl, naphtidrofuryl, reference compound]",–,–,–,–,–,–,–,–,–,–,"change in vivo at 2.5 mg/kg (anaesthetized dog [1]; dog, 2,5 mg/kg i.v. slow perfusion, read-out: Average arterial pressure): -50%; change in vivo at 2.5 mg/kg (anaesthetized dog [1]; dog, 2,5 mg/kg i.v. slow perfusion, read-out: Femoral artery flow): 100%; Average arterial pressure: in time (anaesthetized dog [1]; [7]): 2 min; Femoral artery flow: in time (anaesthetized dog [1]; [7]): 5 min; change in vivo at 2.5 mg/kg (anaesthetized dog [2]; dog, 2,5 mg/kg i.v. rapid injection, read-out: Internal carotid artery back pressure): -26%; change in vivo at 2.5 mg/kg (anaesthetized dog [2]; dog, 2,5 mg/kg i.v. rapid injection, read-out: Systemic average arterial pressure): -50%; change in vivo at 2.5 mg/kg (anaesthetized dog [2]; dog, 2,5 mg/kg i.v. rapid injection, read-out: Vertebral artery flow): 100%; Internal carotid artery back pressure: in time (anaesthetized dog [2]; [8]): 5 min; Systemic average arterial pressure: in time (anaesthetized dog [2]; [8]): 2 min; Vertebral artery flow: in time (anaesthetized dog [2]; [8]): 5 min; Increase of the extraction of cerebral oxygen (anaesthetized dog [2]; dog, 2,5 mg/kg i.v. rapid injection, (A-V)/A): -50%"
COc1cccc(OCC(O)CN2CCN(C(=O)/C=C/c3cc(OC)c(OC)c(OC)c3)CC2)c1 (centres unmarked) [760 390],–,–,–,–,-22,-13,177,5,< 10,30,"LD50 (in vivo; read-out: Toxicity: LD50): 227 mg/kg; Diminution in consumption of O2: in time (anaesthetized dog [3]; 9.1 mg/kg i.v. slow perfusion): 53 min; Diminution in the cardiac effort (IK): in time (anaesthetized dog [3]; 9.1 mg/kg i.v. slow perfusion): 45 min; inhibition in vivo at 9.1 mg/kg (anaesthetized dog [3]; 9.1 mg/kg i.v. slow perfusion, read-out: Diminution in consumption of O2): 64%; inhibition in vivo at 9.1 mg/kg (anaesthetized dog [3]; 9.1 mg/kg i.v. slow perfusion, read-out: Diminution in the cardiac effort (IK)): 60%"
COc1cc(/C=C/C(=O)N2CCN(CC(O)COc3cccc(C)c3)CC2)cc(OC)c1OC (centres unmarked) [760 521],-19,34,30,15,–,–,–,–,–,–,–
COc1cc(/C=C/C(=O)N2CCN(CC(O)COc3ccc(C#N)cc3)CC2)cc(OC)c1OC (centres unmarked) [760 501],-22,61,35,23,–,–,–,–,–,–,"Diminution in consumption of O2: in time (anaesthetized dog [3]; 2.3 mg/kg i.v. slow perfusion): 45 min; Diminution in the cardiac effort (IK): in time (anaesthetized dog [3]; 2.3 mg/kg i.v. slow perfusion): 15 min; inhibition in vivo at 2.3 mg/kg (anaesthetized dog [3]; 2.3 mg/kg i.v. slow perfusion, read-out: Diminution in consumption of O2): 75%; inhibition in vivo at 2.3 mg/kg (anaesthetized dog [3]; 2.3 mg/kg i.v. slow perfusion, read-out: Diminution in the cardiac effort (IK)): 4%"
COc1cc(/C=C/C(=O)N2CCN(CC(O)COc3ccccc3C(C)=O)CC2)cc(OC)c1OC (centres unmarked) [760 455],–,–,–,–,-90,-39,120,20,30,6,"mortality (in vivo; 255 mg/kg i.v., read-out: Toxicity (Mortality)): 50%; Diminution in consumption of O2: in time (anaesthetized dog [3]; 2.5 mg/kg i.v. slow perfusion): 15 min; Diminution in the cardiac effort (IK): in time (anaesthetized dog [3]; 2.5 mg/kg i.v. slow perfusion): 30 min; inhibition in vivo at 2.5 mg/kg (anaesthetized dog [3]; 2.5 mg/kg i.v. slow perfusion, read-out: Diminution in consumption of O2): 45%; inhibition in vivo at 2.5 mg/kg (anaesthetized dog [3]; 2.5 mg/kg i.v. slow perfusion, read-out: Diminution in the cardiac effort (IK)): 24%"
COc1cc(/C=C/C(=O)N2CCN(CC(O)COc3ccc(C)cc3)CC2)cc(OC)c1OC (centres unmarked) [760 505],-21,24,23,15,-38,-11,113,10,20,10,–

# Source: patent US4178442A, “Novel cinnamoyles piperazines and homopiperazines, the method of preparing them and their application in therapeutics” (Delalande S. A., priority 1977, dated 1979)
